Assay results as given in patent US8871934B2, “Fluorene compound and pharmaceutical use thereof” (Japan Tobacco Inc., priority 2008, dated 2014).
Where two headings read alike, the source gives them in different places.

Target: human PDHK2 (hPDHK2) (Homo sapiens (Human), UniProt Q15119)
Experiment: Inhibitory action of PDHK activity in vitro (kinase reaction, residual PDH activity measured)
Assay type: biochemical
[1] = PDHK inhibitory activity, class symbol of IC50
[2] = read-out: PDHK inhibitory activity IC50

Row | SMILES | IC50 [1] | IC50 [2]
1 | O=C1CCC(COc2ccc3c(c2)C(O)(C(F)(F)F)c2ccccc2-3)N1CCCO (stereo not drawn) [compound 421] | 0.1 to 1 µM | 0.233 µM
2 | CC(=O)N(C)CCOc1cc(-c2cncnc2)c2c(c1)C(O)(C(F)(F)F)c1ccccc1-2 (stereo not drawn) [compound 422] | < 0.1 µM | 0.023 µM
3 | CC(=O)N(C)CCOc1cc(-c2cnn(C)c2)c2c(c1)C(O)(C(F)(F)F)c1ccccc1-2 (stereo not drawn) [compound 423] | < 0.1 µM | 0.021 µM
4 | CN(CCOc1cc(-c2cncnc2)c2c(c1)C(O)(C(F)(F)F)c1ccccc1-2)C(=O)CO (stereo not drawn) [compound 424] | < 0.1 µM | 0.023 µM
5 | CN(CCOc1cc(-c2cnn(C)c2)c2c(c1)C(O)(C(F)(F)F)c1ccccc1-2)C(=O)CO (stereo not drawn) [compound 425] | < 0.1 µM | 0.021 µM
6 | Cn1cc(-c2cc(OCCCCO)cc3c2-c2ccccc2C3(O)C(F)(F)F)cn1 (stereo not drawn) [compound 426] | < 0.1 µM | 0.024 µM
7 | CN(C)C(=O)CCCOc1cc(-c2cnn(C)c2)c2c(c1)C(O)(C(F)(F)F)c1ccccc1-2 (stereo not drawn) [compound 427] | < 0.1 µM | 0.02 µM
8 | OCCCCOc1cc(-c2cncnc2)c2c(c1)C(O)(C(F)(F)F)c1ccccc1-2 (stereo not drawn) [compound 428] | < 0.1 µM | 0.025 µM
9 | CN(C)C(=O)CCCOc1cc(-c2cncnc2)c2c(c1)C(O)(C(F)(F)F)c1ccccc1-2 (stereo not drawn) [compound 429] | < 0.1 µM | 0.019 µM
10 | O=C1CCCN1CCOc1cnc2c(c1)C(O)(C(F)(F)F)c1ccccc1-2 (stereo not drawn) [compound 430, 1-[2-(5-hydroxy-5-trifluoromethyl-5H-indeno[1,2-b]pyridin-3-yloxy)-ethyl]-pyrrolidin-2-one] | < 0.1 µM | 0.064 µM
11 | COCOCCN1C(=O)CCC1COc1ccc2c(c1)C(O)(C(F)(F)F)c1ccccc1-2 (stereo not drawn) [compound 431] | 0.1 to 1 µM | 0.25 µM
12 | O=C1CCC(COc2ccc3c(c2)C(O)(C(F)(F)F)c2ccccc2-3)N1CCO (stereo not drawn) [compound 432] | 0.1 to 1 µM | 0.247 µM
13 | Cn1cc(-c2cc(OCC(=O)O)cc3c2-c2ccccc2C3(O)C(F)(F)F)cn1 (stereo not drawn) [compound 433] | 0.1 to 1 µM | 0.388 µM
14 | NC(=O)COc1cnc2c(c1)C(O)(C(F)(F)F)c1ccccc1-2 (stereo not drawn) [compound 434] | 0.1 to 1 µM | 0.561 µM
15 | CC(=O)NCCOc1cc(-c2cnn(C)c2)c2c(c1)C(O)(C(F)(F)F)c1ccccc1-2 (stereo not drawn) [compound 435] | < 0.1 µM | 0.039 µM
16 | OCCCn1cc(-c2cccc3c2-c2ccccc2C3(O)C(F)(F)F)cn1 (stereo not drawn) [compound 436] | < 0.1 µM | 0.065 µM
17 | O=C(COc1cc(Br)c2c(c1)C(O)(C(F)(F)F)c1ccccc1-2)N1CCC1 (stereo not drawn) [compound 437] | < 0.1 µM | 0.06 µM

Row | SMILES | IC50 [1] | IC50 [2]
18 | CNC(=O)COc1cc(Br)c2c(c1)C(O)(C(F)(F)F)c1ccccc1-2 (stereo not drawn) [compound 438] | 0.1 to 1 µM | 0.112 µM
19 | Cn1cc(-c2cc(OCC(=O)N3CC(CO)C3)cc3c2-c2ccccc2C3(O)C(F)(F)F)cn1 (stereo not drawn) [compound 439] | < 0.1 µM | 0.034 µM
20 | Cn1cc(-c2cc(OCC(=O)N3CCC(CO)CC3)cc3c2-c2ccccc2C3(O)C(F)(F)F)cn1 (stereo not drawn) [compound 440] | < 0.1 µM | 0.032 µM
21 | Cn1cc(-c2cc(OCC(=O)N3CCC3)cc3c2-c2ccccc2C3(O)C(F)(F)F)cn1 (stereo not drawn) [compound 441] | < 0.1 µM | 0.036 µM
22 | CNC(=O)COc1cc(-c2cnn(C)c2)c2c(c1)C(O)(C(F)(F)F)c1ccccc1-2 (stereo not drawn) [compound 442] | < 0.1 µM | 0.04 µM
23 | CC(=O)N(CCOc1ccc2c(c1)C(O)(C(F)(F)F)c1ccccc1-2)CCC(=O)O (stereo not drawn) [compound 443] | > 1 µM | 1.15 µM
24 | CN(CCOc1ccc2c(c1)C(O)(C(F)(F)F)c1ccccc1-2)CC(=O)O (stereo not drawn) [compound 444] | > 1 µM | 3.93 µM
25 | O=C1CC[C@H](COc2ccc3c(c2)C(O)(C(F)(F)F)c2ccccc2-3)N1 (stereo partly drawn) [compound 445] | 0.1 to 1 µM | 0.605 µM
26 | O=C1CC[C@@H](COc2ccc3c(c2)C(O)(C(F)(F)F)c2ccccc2-3)N1 (stereo partly drawn) [compound 446] | 0.1 to 1 µM | 0.565 µM
27 | CN1C(=O)CC[C@@H]1COc1ccc2c(c1)C(O)(C(F)(F)F)c1ccccc1-2 (stereo partly drawn) [compound 447] | 0.1 to 1 µM | 0.202 µM
28 | CN1C(=O)CC[C@H]1COc1ccc2c(c1)C(O)(C(F)(F)F)c1ccccc1-2 (stereo partly drawn) [compound 448] | 0.1 to 1 µM | 0.381 µM
29 | Cn1cc(-c2cc(OCCCC(=O)O)cc3c2-c2ccccc2C3(O)C(F)(F)F)cn1 (stereo not drawn) [compound 449] | < 0.1 µM | 0.047 µM
30 | O=C1CCC(CO)N1CCOc1ccc2c(c1)C(O)(C(F)(F)F)c1ccccc1-2 (stereo not drawn) [compound 450] | 0.1 to 1 µM | 0.442 µM
31 | Cn1cc(-c2cc(OCCCO)cc3c2-c2ccccc2C3(O)C(F)(F)F)cn1 (stereo not drawn) [compound 453] | < 0.1 µM | 0.028 µM
32 | Cn1cc(-c2cc(OCCC(=O)O)cc3c2-c2ccccc2C3(O)C(F)(F)F)cn1 (stereo not drawn) [compound 454] | < 0.1 µM | 0.064 µM
33 | CN(C)C(=O)CCOc1cc(-c2cnn(C)c2)c2c(c1)C(O)(C(F)(F)F)c1ccccc1-2 (stereo not drawn) [compound 455] | < 0.1 µM | 0.026 µM
